Results taken from article PMC12216609, “Inhibitors of eIF1A-ribosome interaction unveil uORF-dependent regulation of translation initiation and antitumor and antiviral effects” (The EMBO Journal, 2025).
Several values for one entry are separate records, joined by “and”; a condition that tells them apart may be missing. Equal values may be shown once. Read-outs that look alike come from different tables or passages of the source.

How the values were obtained:
[1] = test system: CUG/GUG vs AUG start codon luciferase reporters in HEK293T cells; assay: Near-cognate AUG starting codon fidelity reporter assay (GUG, CUG vs AUG); type: cell-based; conditions: for CUG vs AUG (%): CUG start codon reporter relative to AUG reporter (AUG = 100); for CUG vs AUG (%) / GUG vs AUG (%): single-experiment calculation; for GUG vs AUG (%): GUG start codon reporter relative to AUG reporter (AUG = 100); for average CUG and GUG / average CUG and GUG relative to DMSO / CUG Average / GUG Average: NUG experiment; for CUG Average: CUG vs AUG reporter; for GUG Average: GUG vs AUG reporter; for NUG (Final data, Fig. 1E): average CUG and GUG relative to DMSO, 20 µM overnight; for GUG vs AUG data (%): individual repeat; for GUG vs AUG (%) Average: summary average of repeats, DMSO control average […]
RPS10 = target: T1, RPS10 (Homo sapiens, UniProt P46783); type: binding; conditions: for RPS10 IC50: fluorescence binding
T1 construct: made in house; host or cells: E. coli BL-21

eIF1A = target: T2, eIF1A (Homo sapiens, UniProt P47813); type: binding; conditions: for fluorescence ratio, eIF1A: background-corrected, relative to DMSO or lowest 1Ai concentration, replicate columns; for WT eIF1A IC50: fluorescence binding
T2 construct: His-bdSUMO (cleaved yes); made in house; host or cells: E. coli BL-21
T2 sequence (P47813 whole entry): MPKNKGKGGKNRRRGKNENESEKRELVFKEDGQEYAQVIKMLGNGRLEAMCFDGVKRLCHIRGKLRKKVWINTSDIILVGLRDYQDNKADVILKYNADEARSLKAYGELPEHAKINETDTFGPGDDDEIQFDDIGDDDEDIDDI

eIF1A-RPS10 interaction = target: T3, eIF1A-RPS10 interaction (Homo sapiens, UniProt P46783+P47813); assay: Split-Renilla luciferase eIF1A-RPS10 interaction screen, dose-response; type: biochemical
T3 construct: made in house; host or cells: E. coli BL21 (PRSFduet); unpurified lysate supernatant
T3 sequence (P47813 whole entry, one chain of several): as the sequence (P47813 whole entry) above
Outline: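 The assay used bacterial lysates containing human eIF1A and RPS10, each carrying a partial Renilla luciferase, with eIF1A tagged at its C-terminus. Inhibition was scored as reduced luciferase signal from compounds prepared as 10 mM DMSO stocks.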

[2] = summary table, fluorescence binding assay
[3] = summary table, read-out: IC50 concentration (µM), IC50 screen
[4] = summary table, fluorescence binding assay, read-out: IC50 concentration (µM), RPS10
[5] = compound at 20uM (summary head)
[6] = eIF1A, from the titration data, read-out: IC50 (eIF1A titration block)
[7] = summary table, fluorescence binding assay, read-out: IC50 concentration (µM), WT eIF1A

Structure (SMILES) | average CUG and GUG [1] | average CUG and GUG relative to DMSO [1] | CUG Average [1] | GUG Average [1] | NUG (Final data, Fig. 1E) [1] | RPS10 fluorescence ratio to control (RPS10; 1Ai conc. 0.25 uM) | RPS10 fluorescence ratio to control (RPS10; 1Ai conc. 0.5 uM) | RPS10 fluorescence ratio to control (RPS10; 1Ai conc. 1 uM) | RPS10 fluorescence ratio to control (RPS10; 1Ai conc. 2 uM) | fluorescence ratio, eIF1A (eIF1A; 1Ai conc. 0.25 uM) | fluorescence ratio, eIF1A (eIF1A; 1Ai conc. 0.5 uM) | fluorescence ratio, eIF1A (eIF1A; 1Ai conc. 1 uM) | fluorescence ratio, eIF1A (eIF1A; 1Ai conc. 2 uM) | fluorescence ratio, eIF1A (eIF1A; 1Ai conc. 4 uM) | fluorescence ratio, eIF1A (eIF1A; 1Ai conc. 8 uM) | fluorescence ratio, eIF1A (eIF1A; 1Ai conc. 16 uM) | fluorescence ratio, eIF1A (eIF1A; 1Ai conc. 32 uM) | fluorescence ratio, eIF1A (eIF1A; 1Ai conc. 64 uM) | fluorescence ratio, eIF1A (eIF1A; 1Ai conc. 256 uM) | IC50 (eIF1A-RPS10 interaction; [3]) [µM] | other results
Oc1cc(Cl)ccc1Oc1ccc(Cl)cc1Cl [1Ai-6248] | 4.51 | 1 | 7.441 | 1.579 | 1.000 | 1.015 | 0.9639 | 0.9786 | 0.9545 | 0.9384 and 1.064 | 0.9722 and 1.055 | 1.006 and 1.027 | 0.9417 and 1.0128 | 0.9205 and 0.9547 | 0.8204 and 0.8224 | 0.7985 and 0.7888 | 0.7283 and 0.6891 | 0.6123 and 0.5776 | 0.937 and 1.038 | 28 | CUG vs AUG (%) ([1]; compound at 5uM (summary head)): 9.031% and 6.716%; GUG vs AUG (%) ([1]; compound at 5uM (summary head)): 1.808% and 1.909%; GUG vs AUG data (%) ([1]; compound at 5uM): 1.28% and 2.36% and 1.32% and 1.37%; GUG vs AUG (%) Average ([1]; compound at 5uM): 1.58%; RPS10 fluorescence ratio to control (RPS10; 1Ai conc. 4 uM): 0.9327; RPS10 fluorescence ratio to control (RPS10; 1Ai conc. 8 uM): 0.7864; RPS10 fluorescence ratio to control (RPS10; 1Ai conc. 16 uM): 0.7439; RPS10 fluorescence ratio to control (RPS10; 1Ai conc. 32 uM): 0.7362; RPS10 fluorescence ratio to control (RPS10; 1Ai conc. 64 uM): 0.7781; RPS10 fluorescence ratio to control (RPS10; 1Ai conc. 256 uM): 1.057; RPS10 IC50 (RPS10): No binding; IC50 concentration (µM), RPS10 (RPS10; [2]): No binding; WT eIF1A IC50 (eIF1A): No binding; IC50 concentration (µM), WT eIF1A (eIF1A; [2]): No binding
O=S(=O)(c1ccccc1)N1CCN(C2c3ccccc3-c3ccccc32)CC1 [1Ai-9025] | 4.366 | 0.9681 | 6.84 | 1.892 | 0.968 |  |  |  |  | 0.9827 and 0.9579 | 0.9655 and 0.9562 | 0.9303 and 0.9366 | 0.9516 and 0.9059 | 0.9297 and 0.9235 | 0.9058 and 0.9493 | 0.9688 and 0.9828 | 0.9874 and 1.077 | 1.153 and 1.164 | 1.25 and 1.3257 | 17 | GUG vs AUG data (%) ([1]; compound at 20uM): 2.56% and 1.57% and 2.32% and 1.11%; GUG vs AUG (%) Average ([1]; compound at 20uM): 1.89%; IC50 (RPS10; [4]): 4.8 µM; WT eIF1A IC50 (eIF1A): No binding; IC50 concentration (µM), WT eIF1A (eIF1A; [2]): No binding
O=C(C=Cc1ccc(Cl)s1)Nc1cccc2ncccc12 [1Ai-4860] | 2.314 | 0.5131 | 3.6331 | 0.9953 | 0.513 | 0.9517 | 0.9517 | 0.8947 | 0.9408 | 1.378 and 0.7463 | 1.41 and 0.8167 | 1.444 and 0.7972 | 1.487 and 1.19 | 1.443 and 1.135 | 0.951 and 1.007 | 1.0935 and 0.6993 | 1.055 and 0.7323 | 1.155 and 0.874 | 1.071 and 0.7793 | 23 | CUG vs AUG (%) [1, 5]: 3.6331%; GUG vs AUG (%) [1, 5]: 0.9953%; GUG vs AUG data (%) ([1]; compound at 20uM): 1.48% and 1.00%; GUG vs AUG (%) Average ([1]; compound at 20uM): 1.24%; RPS10 fluorescence ratio to control (RPS10; 1Ai conc. 4 uM): 0.8788; RPS10 fluorescence ratio to control (RPS10; 1Ai conc. 8 uM): 0.814; RPS10 fluorescence ratio to control (RPS10; 1Ai conc. 16 uM): 0.7263; RPS10 fluorescence ratio to control (RPS10; 1Ai conc. 32 uM): 0.7395; RPS10 fluorescence ratio to control (RPS10; 1Ai conc. 64 uM): 0.7335; RPS10 fluorescence ratio to control (RPS10; 1Ai conc. 256 uM): 0.5649; RPS10 IC50 (RPS10): No binding; IC50 concentration (µM), RPS10 (RPS10; [2]): No binding; WT eIF1A IC50 (eIF1A): No binding; IC50 concentration (µM), WT eIF1A (eIF1A; [2]): No binding
CN1CCN(S(=O)(=O)c2ccc(N3Cc4cc5c(cc4C4(CCCC4)C3)OCCO5)nc2)CC1 [1Ai-3564] | 6.96 | 1.543 | 10.8773 | 3.042 | 1.543 | 1 | 0.8515 | 0.9657 | 0.9853 | 1.044 and 1 | 1.089 and 1.095 | 1.239 and 0.9891 | 1.143 and 0.9513 | 1.209 and 0.9045 | 1.156 and 0.8599 | 1.357 and 1.021 | 1.557 and 1.107 | 1.6 and 1.164 | 1.73 and 1.413 | 15 | GUG vs AUG data (%) ([1]; compound at 20uM): 2.43% and 3.12% and 4.52% and 2.10%; GUG vs AUG (%) Average ([1]; compound at 20uM): 3.04%; RPS10 fluorescence ratio to control (RPS10; 1Ai conc. 4 uM): 0.8932; RPS10 fluorescence ratio to control (RPS10; 1Ai conc. 8 uM): 0.9434; RPS10 fluorescence ratio to control (RPS10; 1Ai conc. 16 uM): 0.942; RPS10 fluorescence ratio to control (RPS10; 1Ai conc. 32 uM): 1; RPS10 fluorescence ratio to control (RPS10; 1Ai conc. 64 uM): 1.142; RPS10 fluorescence ratio to control (RPS10; 1Ai conc. 256 uM): 1.206; RPS10 IC50 (RPS10): No binding; IC50 concentration (µM), RPS10 (RPS10; [2]): No binding; IC50 (eIF1A; [6]): 35.2 µM; IC50 (eIF1A; [7]): 35.3 µM
COc1cccc(Nc2nc(-c3ccc(NC(C)=O)cc3)c(C)s2)c1 [1Ai-1869] | 3.262 | 0.7232 | 5.139 | 1.3841 | 0.723 | 0.7198 | 0.6885 | 0.6476 | 0.5996 | 0.7968 and 0.7342 | 0.8838 and 0.7405 | 0.8128 and 0.72 | 1.007 and 0.8137 | 0.913 and 0.7844 | 0.7676 and 0.6709 | 0.6554 and 0.584 | 0.5701 and 0.4814 | 0.4848 and 0.4176 | 0.3469 and 0.3333 | 14 | CUG vs AUG (%) ([1]; compound at 5uM (summary head)): 5.139%; GUG vs AUG (%) ([1]; compound at 5uM (summary head)): 1.3841%; GUG vs AUG data (%) ([1]; compound at 5uM): 2.01% and 1.38%; GUG vs AUG (%) Average ([1]; compound at 5uM): 1.70%; RPS10 fluorescence ratio to control (RPS10; 1Ai conc. 4 uM): 0.5488; RPS10 fluorescence ratio to control (RPS10; 1Ai conc. 8 uM): 0.4668; RPS10 fluorescence ratio to control (RPS10; 1Ai conc. 16 uM): 0.3725; RPS10 fluorescence ratio to control (RPS10; 1Ai conc. 32 uM): 0.2785; RPS10 fluorescence ratio to control (RPS10; 1Ai conc. 64 uM): 0.234; RPS10 fluorescence ratio to control (RPS10; 1Ai conc. 256 uM): 0.2345; IC50 (RPS10; read-out: IC50 (line under RPS10 binding data)): 7.7 µM; IC50 (RPS10; read-out: RPS10 IC50): 7.7 µM; IC50 (RPS10; [4]): 7.7 µM; IC50 (eIF1A; [6]): 20.4 µM; IC50 (eIF1A; [7]): 20.4 µM; IC50 (eIF1A-RPS10 interaction; Appendix Table S1, read-out: IC50 from the split RL screen): 18 µM
